Data from US8759385B2, “Composition comprising azole fungicide and water soluble metal salt” (Conopco Inc., priority 2009, dated 2014).

Test system: Trypsin
Assay: anti-trypsin effect (normalised trypsin activity)
Assay type: biochemical
Conditions: control (trypsin only) = 1.0

Compound Zinc gluconate has a Normalised activity (Zinc gluconate 0.00156% alone) of 1.03, a Normalised activity (Zinc gluconate 0.003125% alone) of 0.957 and a Normalised activity (Zinc gluconate 0.00625% alone) of 0.8404.
Compound `CC(C)(C)C(=O)C(Oc1ccc(Cl)cc1)n1ccnc1` (stereo not drawn) [Climbazole] has a Normalised activity (Climbazole 0.00391% alone) of 1.15, a Normalised activity (Climbazole 0.00781% alone) of 1.31 and a Normalised activity (Climbazole 0.01563% alone) of 1.41. For the same compound, the Normalised activity (Climbazole 0.03125% alone) was 1.30, the Normalised activity (Climbazole 0.0625% alone) was 0.908 and the Normalised activity (Climbazole 0.125% alone) was 1.06.
